Six compounds from ChEMBL document CHEMBL1921670, “Discovery and optimization of indole and 7-azaindoles as Rho kinase (ROCK) inhibitors (part-II)” (Bioorg Med Chem Lett, 2011) can be followed below.

Molecules are shown by their SMILES. The source made the active and inactive calls. No cut-off for these calls is given here.

For orientation: solubility means how much of the substance goes into solution per volume. As a reminder, the inhibition is the share of the control response that was lost under treatment. Usually IC50 stands for the concentration that inhibits the measured activity by half. Lower therefore signals inhibition by little substance. The term half-life denotes how long it takes for the measured level to halve. Higher therefore signals slow decline.

CYP2D6, sequence (P10635 whole entry): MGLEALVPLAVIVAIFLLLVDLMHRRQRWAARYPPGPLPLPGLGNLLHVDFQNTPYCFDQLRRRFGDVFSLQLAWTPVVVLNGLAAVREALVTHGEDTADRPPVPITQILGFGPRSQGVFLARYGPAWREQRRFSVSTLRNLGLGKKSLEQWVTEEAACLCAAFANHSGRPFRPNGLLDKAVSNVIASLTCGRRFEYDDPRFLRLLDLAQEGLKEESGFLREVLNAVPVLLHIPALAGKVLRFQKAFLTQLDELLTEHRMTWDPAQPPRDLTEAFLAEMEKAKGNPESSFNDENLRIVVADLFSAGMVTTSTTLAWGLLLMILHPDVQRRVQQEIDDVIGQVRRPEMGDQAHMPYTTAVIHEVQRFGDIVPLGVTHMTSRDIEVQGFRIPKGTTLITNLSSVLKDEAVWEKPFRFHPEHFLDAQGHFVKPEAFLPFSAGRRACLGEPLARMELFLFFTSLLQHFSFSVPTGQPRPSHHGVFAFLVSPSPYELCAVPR
CYP2C9, sequence (P11712 whole entry): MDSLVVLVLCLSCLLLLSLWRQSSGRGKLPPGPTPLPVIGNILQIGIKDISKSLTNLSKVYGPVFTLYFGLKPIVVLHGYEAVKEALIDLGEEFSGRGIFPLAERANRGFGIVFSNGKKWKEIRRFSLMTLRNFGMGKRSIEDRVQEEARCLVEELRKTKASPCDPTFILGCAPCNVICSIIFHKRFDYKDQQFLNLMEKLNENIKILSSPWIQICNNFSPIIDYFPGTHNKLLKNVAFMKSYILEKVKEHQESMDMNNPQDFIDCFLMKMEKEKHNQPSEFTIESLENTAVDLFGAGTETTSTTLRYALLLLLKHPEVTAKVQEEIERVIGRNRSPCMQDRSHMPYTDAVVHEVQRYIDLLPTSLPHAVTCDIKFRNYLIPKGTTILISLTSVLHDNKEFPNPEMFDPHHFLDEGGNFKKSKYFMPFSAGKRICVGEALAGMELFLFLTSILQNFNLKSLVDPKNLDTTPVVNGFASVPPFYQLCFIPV
CYP3A4, sequence (P08684 whole entry): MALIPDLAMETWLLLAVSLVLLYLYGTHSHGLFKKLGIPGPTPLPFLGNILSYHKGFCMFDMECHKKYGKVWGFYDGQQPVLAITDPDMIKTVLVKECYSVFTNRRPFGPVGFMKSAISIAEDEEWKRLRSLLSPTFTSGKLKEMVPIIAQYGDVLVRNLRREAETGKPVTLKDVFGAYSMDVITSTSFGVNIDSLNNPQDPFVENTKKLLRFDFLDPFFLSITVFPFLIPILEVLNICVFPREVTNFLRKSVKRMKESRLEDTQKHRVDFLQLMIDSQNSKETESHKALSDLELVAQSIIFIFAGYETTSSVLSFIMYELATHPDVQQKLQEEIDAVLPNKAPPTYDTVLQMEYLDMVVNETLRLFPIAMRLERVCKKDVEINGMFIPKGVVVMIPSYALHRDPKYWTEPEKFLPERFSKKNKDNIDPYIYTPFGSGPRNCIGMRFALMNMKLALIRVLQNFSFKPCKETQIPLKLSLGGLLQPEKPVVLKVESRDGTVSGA
Rho-associated protein kinase 1, sequence (Q13464 whole entry): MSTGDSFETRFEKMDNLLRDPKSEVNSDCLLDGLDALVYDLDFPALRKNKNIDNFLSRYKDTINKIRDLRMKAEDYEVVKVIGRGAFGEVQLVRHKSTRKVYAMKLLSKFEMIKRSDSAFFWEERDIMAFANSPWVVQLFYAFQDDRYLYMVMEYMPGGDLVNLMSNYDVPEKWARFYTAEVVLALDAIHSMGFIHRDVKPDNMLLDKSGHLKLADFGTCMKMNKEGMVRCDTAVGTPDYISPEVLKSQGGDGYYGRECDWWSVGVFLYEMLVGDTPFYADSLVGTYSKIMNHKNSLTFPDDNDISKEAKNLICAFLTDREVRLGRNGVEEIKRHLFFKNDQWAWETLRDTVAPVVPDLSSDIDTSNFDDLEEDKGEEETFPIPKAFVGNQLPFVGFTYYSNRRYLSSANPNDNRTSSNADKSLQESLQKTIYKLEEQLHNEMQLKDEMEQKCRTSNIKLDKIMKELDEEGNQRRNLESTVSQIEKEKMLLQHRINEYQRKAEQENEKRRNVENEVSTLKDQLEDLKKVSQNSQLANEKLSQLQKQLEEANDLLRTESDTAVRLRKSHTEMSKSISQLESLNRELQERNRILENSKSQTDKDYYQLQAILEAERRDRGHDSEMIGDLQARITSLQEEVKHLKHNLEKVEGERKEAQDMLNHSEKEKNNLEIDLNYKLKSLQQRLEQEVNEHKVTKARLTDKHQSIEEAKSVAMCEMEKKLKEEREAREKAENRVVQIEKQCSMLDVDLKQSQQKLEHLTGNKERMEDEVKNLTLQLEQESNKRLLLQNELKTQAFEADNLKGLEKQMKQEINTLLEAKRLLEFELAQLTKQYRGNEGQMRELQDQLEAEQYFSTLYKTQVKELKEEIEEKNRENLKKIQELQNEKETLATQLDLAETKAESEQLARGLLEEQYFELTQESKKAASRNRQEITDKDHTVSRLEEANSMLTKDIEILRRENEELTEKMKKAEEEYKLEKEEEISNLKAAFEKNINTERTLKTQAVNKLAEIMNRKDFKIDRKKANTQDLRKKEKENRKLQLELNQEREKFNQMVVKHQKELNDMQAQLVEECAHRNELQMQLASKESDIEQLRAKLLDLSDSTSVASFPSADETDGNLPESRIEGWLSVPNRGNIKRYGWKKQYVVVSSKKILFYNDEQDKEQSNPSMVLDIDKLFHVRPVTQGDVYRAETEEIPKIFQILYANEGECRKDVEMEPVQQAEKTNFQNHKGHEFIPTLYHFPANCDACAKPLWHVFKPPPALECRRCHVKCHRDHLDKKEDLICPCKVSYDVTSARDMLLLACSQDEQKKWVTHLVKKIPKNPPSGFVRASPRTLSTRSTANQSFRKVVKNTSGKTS

Test system in the first data set: not listed separately
Description: Aqueous solubility of compound at pH 5.5. To be noted: buffer. It is filed as physicochemical.
Take `COc1cccc(CNC(=O)c2c[nH]c3cc(-c4cn[nH]c4)ccc23)c1`: the solubility is not above 0.01 µM.

Another data set concerns the target CYP2D6 (Homo sapiens, UniProt P10635). Description: Inhibition of CYP2D6 at 10 uM. It is filed as ADME.
Conditions: not given
In the case of `COc1cccc(CN(CCCN(C)C)C(=O)c2cn(C)c3cc(-c4cn[nH]c4)ccc23)c1`, the inhibition at 10 µM amounted to 31%.

For the compound `COc1cccc(CNC(=O)c2cc3ccc(-c4cn[nH]c4)nc3n2CCN(C)C)c1`, the inhibition at 10 µM was 55%.

For the compound `COc1cccc(CN(CCN(C)C)C(=O)c2cn(C)c3cc(-c4cn[nH]c4)ccc23)c1`, the inhibition at 10 µM was found to be 52%.

As to `COc1cccc(CN(C)C(=O)c2cn(C)c3cc(-c4cn[nH]c4)ccc23)c1`, testing at 10 µM gave an inhibition of 58%.

Test system in a further data set: not listed separately
The data set can be described thus: Inhibition of p38 at 5 uM.
Conditions: not given
As for `COc1cccc(CNC(=O)c2cc3ccc(-c4cn[nH]c4)nc3n2CCN(C)C)c1`, the inhibition result was “inactive”.

`COc1cccc(CNC(=O)c2cc3ccc(-c4cn[nH]c4)nc3n2CCCO)c1`: the inhibition result is “inactive”.

In another data set the target is Rho-associated protein kinase 2 (Homo sapiens, UniProt O75116). The data set can be described thus: Inhibition of ROCK2.
Rho-associated protein kinase 2, sequence (O75116 whole entry): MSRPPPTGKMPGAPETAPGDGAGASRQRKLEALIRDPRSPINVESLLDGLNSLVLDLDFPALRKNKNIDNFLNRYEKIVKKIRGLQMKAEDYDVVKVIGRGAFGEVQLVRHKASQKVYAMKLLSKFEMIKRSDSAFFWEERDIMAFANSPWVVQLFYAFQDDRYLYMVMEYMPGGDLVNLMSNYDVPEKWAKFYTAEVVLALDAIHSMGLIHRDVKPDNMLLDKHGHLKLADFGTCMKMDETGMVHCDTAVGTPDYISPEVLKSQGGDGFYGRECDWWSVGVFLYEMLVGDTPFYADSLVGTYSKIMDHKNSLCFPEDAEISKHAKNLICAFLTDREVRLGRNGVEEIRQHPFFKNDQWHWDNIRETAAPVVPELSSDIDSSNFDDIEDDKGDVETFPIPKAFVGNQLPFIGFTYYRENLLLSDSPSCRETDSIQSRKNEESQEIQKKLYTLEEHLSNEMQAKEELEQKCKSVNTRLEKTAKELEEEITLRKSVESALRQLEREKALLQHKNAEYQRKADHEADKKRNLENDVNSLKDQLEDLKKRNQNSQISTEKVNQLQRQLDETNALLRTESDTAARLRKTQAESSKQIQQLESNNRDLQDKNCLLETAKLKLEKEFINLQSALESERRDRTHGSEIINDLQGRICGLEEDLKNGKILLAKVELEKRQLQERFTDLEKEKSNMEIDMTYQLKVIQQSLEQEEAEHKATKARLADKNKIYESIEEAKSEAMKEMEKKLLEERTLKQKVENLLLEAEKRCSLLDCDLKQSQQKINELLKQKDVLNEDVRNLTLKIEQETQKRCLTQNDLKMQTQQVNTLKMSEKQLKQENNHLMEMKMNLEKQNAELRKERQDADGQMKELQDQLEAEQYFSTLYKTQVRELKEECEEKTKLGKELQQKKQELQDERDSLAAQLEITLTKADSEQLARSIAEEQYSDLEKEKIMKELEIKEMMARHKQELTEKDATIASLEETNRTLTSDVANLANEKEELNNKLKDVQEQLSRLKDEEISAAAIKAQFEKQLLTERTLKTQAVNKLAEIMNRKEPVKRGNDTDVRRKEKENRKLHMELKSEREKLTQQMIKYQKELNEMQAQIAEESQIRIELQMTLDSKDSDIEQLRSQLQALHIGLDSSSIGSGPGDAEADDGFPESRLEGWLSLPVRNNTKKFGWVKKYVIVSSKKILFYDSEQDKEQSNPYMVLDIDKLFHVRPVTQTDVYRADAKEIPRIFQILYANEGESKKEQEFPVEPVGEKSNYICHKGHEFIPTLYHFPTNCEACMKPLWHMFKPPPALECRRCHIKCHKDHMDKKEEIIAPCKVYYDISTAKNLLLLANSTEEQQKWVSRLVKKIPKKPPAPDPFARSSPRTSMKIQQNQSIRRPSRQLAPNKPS
Conditions: not given
In turn, `COc1cccc(CN(CCCN(C)C)C(=O)c2cn(C)c3cc(-c4cn[nH]c4)ccc23)c1` registered an IC50 of 0.001 µM.

`COc1cccc(CNC(=O)c2cc3ccc(-c4cn[nH]c4)nc3n2CCN(C)C)c1` registered an IC50 of 0.043 µM.

Compound `COc1cccc(CN(CCN(C)C)C(=O)c2cn(C)c3cc(-c4cn[nH]c4)ccc23)c1` yielded an IC50 of 0.001 µM.

As to `COc1cccc(CNC(=O)c2cc3ccc(-c4cn[nH]c4)nc3n2CCCO)c1`, half-maximal inhibition (IC50) required 0.024 µM. This IC50 lies about 24-fold higher than the previous one.

Turning to `COc1cccc(CN(C)C(=O)c2cn(C)c3cc(-c4cn[nH]c4)ccc23)c1`, the IC50 was less than 0.001 µM.

The next data set addresses Rho-associated protein kinase 1 (Homo sapiens, UniProt Q13464). Description: Inhibition of ROCK1.
Conditions: not given
The compound `COc1cccc(CN(CCCN(C)C)C(=O)c2cn(C)c3cc(-c4cn[nH]c4)ccc23)c1` registered an IC50 of 0.013 µM.

Compound `COc1cccc(CNC(=O)c2cc3ccc(-c4cn[nH]c4)nc3n2CCN(C)C)c1` registered an IC50 of 0.243 µM.

`COc1cccc(CN(CCN(C)C)C(=O)c2cn(C)c3cc(-c4cn[nH]c4)ccc23)c1`: the IC50 came out at 0.009 µM.

The compound `COc1cccc(CNC(=O)c2cc3ccc(-c4cn[nH]c4)nc3n2CCCO)c1` returned a half-maximal inhibitory concentration (IC50) of 0.088 µM.

In turn, `COc1cccc(CN(C)C(=O)c2cn(C)c3cc(-c4cn[nH]c4)ccc23)c1` showed an IC50 of 0.003 µM.

Test system in another data set: not listed separately
Description: Half life in human liver microsomes. It is filed as ADME, Microsome.
Conditions: not given
(In general: Liver microsomes are vesicles of endoplasmic reticulum, rich in cytochrome P450 enzymes.)
In turn, `COc1cccc(CN(CCCN(C)C)C(=O)c2cn(C)c3cc(-c4cn[nH]c4)ccc23)c1` gave a half-life of 14 min.

`COc1cccc(CNC(=O)c2cc3ccc(-c4cn[nH]c4)nc3n2CCN(C)C)c1` gave a half-life of 17 min.

Regarding `COc1cccc(CN(CCN(C)C)C(=O)c2cn(C)c3cc(-c4cn[nH]c4)ccc23)c1`, the half-life came to 8 min. Against the preceding compound, the half-life is about 2.1-fold lower.

Compound `COc1cccc(CN(C)C(=O)c2cn(C)c3cc(-c4cn[nH]c4)ccc23)c1` yielded a half-life of 4 min.

Test system in a further data set: not listed separately
Description: Aqueous solubility of compound at pH 7.4. It is filed as physicochemical. To be noted: buffer.
With `COc1cccc(CNC(=O)c2c[nH]c3cc(-c4cn[nH]c4)ccc23)c1`, the solubility was not above 0.01 µM.

The next data set addresses Serine/threonine-protein kinase MRCK alpha (Homo sapiens) (UniProt Q5VT25). The data set can be described thus: Inhibition of MRCKalpha at 5 uM.
Conditions: not given
Regarding `COc1cccc(CNC(=O)c2cc3ccc(-c4cn[nH]c4)nc3n2CCN(C)C)c1`, the inhibition result is “inactive”.

Take `COc1cccc(CNC(=O)c2cc3ccc(-c4cn[nH]c4)nc3n2CCCO)c1`: the inhibition result is “inactive”.

Test system in the next data set: not listed separately
Description: Inhibition of PKA.
Conditions: not given
`COc1cccc(CN(CCCN(C)C)C(=O)c2cn(C)c3cc(-c4cn[nH]c4)ccc23)c1` returned an IC50 of 2.81 µM.

For `COc1cccc(CNC(=O)c2cc3ccc(-c4cn[nH]c4)nc3n2CCN(C)C)c1`, half-maximal inhibition (IC50) required 3.67 µM.

Turning to `COc1cccc(CN(CCN(C)C)C(=O)c2cn(C)c3cc(-c4cn[nH]c4)ccc23)c1`, the IC50 amounted to 2.2 µM. Against the preceding compound, the IC50 is about 1.7-fold lower.

Take `COc1cccc(CNC(=O)c2cc3ccc(-c4cn[nH]c4)nc3n2CCCO)c1`: the IC50 turned out to be 5.8 µM.

On to `COc1cccc(CNC(=O)c2c[nH]c3cc(-c4cn[nH]c4)ccc23)c1`, for which the IC50 amounted to 0.51 µM.

On to `COc1cccc(CN(C)C(=O)c2cn(C)c3cc(-c4cn[nH]c4)ccc23)c1`, for which the IC50 stood at 0.68 µM. The IC50 values of the last two compounds are within 1.5-fold of each other.

A further data set addresses CYP2C9 (Homo sapiens, UniProt P11712). The data set can be described thus: Inhibition of CYP2C9 at 10 uM. Format: ADME.
Conditions: not given
Regarding `COc1cccc(CN(CCCN(C)C)C(=O)c2cn(C)c3cc(-c4cn[nH]c4)ccc23)c1`, at 10 µM the inhibition was 28%.

Compound `COc1cccc(CNC(=O)c2cc3ccc(-c4cn[nH]c4)nc3n2CCN(C)C)c1` registered an inhibition at 10 µM of 46%.

For the compound `COc1cccc(CN(CCN(C)C)C(=O)c2cn(C)c3cc(-c4cn[nH]c4)ccc23)c1`, the inhibition at 10 µM was found to be 62%.

For the compound `COc1cccc(CN(C)C(=O)c2cn(C)c3cc(-c4cn[nH]c4)ccc23)c1`, at 10 µM the inhibition was 93%.

Test system in a further data set: not listed separately
The data set can be described thus: Inhibition of myosin light chain bisphosphorylation by cell-based assay.
Conditions: not given
For `COc1cccc(CN(CCCN(C)C)C(=O)c2cn(C)c3cc(-c4cn[nH]c4)ccc23)c1`, 0.053 µM corresponded to half-maximal inhibition (IC50).

In the case of `COc1cccc(CN(CCN(C)C)C(=O)c2cn(C)c3cc(-c4cn[nH]c4)ccc23)c1`, the IC50 was found to be 0.034 µM.

Consider `COc1cccc(CN(C)C(=O)c2cn(C)c3cc(-c4cn[nH]c4)ccc23)c1`, for which the IC50 turned out to be 0.017 µM.

The next data set has as its target T1, CYP1A2 (Homo sapiens, UniProt P05177).
T1 sequence (P05177 whole entry): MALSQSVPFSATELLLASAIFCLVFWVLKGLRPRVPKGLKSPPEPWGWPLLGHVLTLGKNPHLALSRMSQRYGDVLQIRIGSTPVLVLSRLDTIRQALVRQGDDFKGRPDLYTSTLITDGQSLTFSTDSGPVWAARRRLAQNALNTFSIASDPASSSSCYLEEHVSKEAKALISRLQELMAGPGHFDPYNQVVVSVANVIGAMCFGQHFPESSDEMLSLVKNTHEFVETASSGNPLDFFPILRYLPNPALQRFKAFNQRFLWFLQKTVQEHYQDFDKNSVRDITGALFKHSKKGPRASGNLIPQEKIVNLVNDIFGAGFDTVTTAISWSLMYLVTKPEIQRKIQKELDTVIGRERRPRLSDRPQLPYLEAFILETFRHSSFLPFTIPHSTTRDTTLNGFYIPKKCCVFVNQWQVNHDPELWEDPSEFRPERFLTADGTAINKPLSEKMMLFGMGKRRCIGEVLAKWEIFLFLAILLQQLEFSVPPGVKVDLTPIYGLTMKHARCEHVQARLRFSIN
Description: Inhibition of CYP1A2 at 10 uM. It is filed as ADME.
Conditions: not given
Take `COc1cccc(CN(CCCN(C)C)C(=O)c2cn(C)c3cc(-c4cn[nH]c4)ccc23)c1`: the inhibition at 10 µM stood at 4%.

Compound `COc1cccc(CNC(=O)c2cc3ccc(-c4cn[nH]c4)nc3n2CCN(C)C)c1` had an inhibition at 10 µM of 26%.

As to `COc1cccc(CN(CCN(C)C)C(=O)c2cn(C)c3cc(-c4cn[nH]c4)ccc23)c1`, the inhibition at 10 µM was 3%.

The compound `COc1cccc(CN(C)C(=O)c2cn(C)c3cc(-c4cn[nH]c4)ccc23)c1` returned an inhibition at 10 µM of 23%.

For another data set, the target named is Mitogen-activated protein kinase 10 (Homo sapiens) (UniProt P53779). Description: Inhibition of JNK3 at 5 uM.
Conditions: not given
With `COc1cccc(CNC(=O)c2cc3ccc(-c4cn[nH]c4)nc3n2CCN(C)C)c1`, the inhibition entry was “inactive”.

Take `COc1cccc(CNC(=O)c2cc3ccc(-c4cn[nH]c4)nc3n2CCCO)c1`: the inhibition result was “inactive”.

Another data set has as its target CYP3A4 (Homo sapiens, UniProt P08684). The data set can be described thus: Inhibition of CYP3A4 at 10 uM. It is filed as ADME.
Conditions: not given
The compound `COc1cccc(CN(CCCN(C)C)C(=O)c2cn(C)c3cc(-c4cn[nH]c4)ccc23)c1` yielded an inhibition at 10 µM of 31%.

The compound `COc1cccc(CNC(=O)c2cc3ccc(-c4cn[nH]c4)nc3n2CCN(C)C)c1` yielded an inhibition at 10 µM of 65%.

For the compound `COc1cccc(CN(CCN(C)C)C(=O)c2cn(C)c3cc(-c4cn[nH]c4)ccc23)c1`, the inhibition at 10 µM was found to be 36%.

The compound `COc1cccc(CN(C)C(=O)c2cn(C)c3cc(-c4cn[nH]c4)ccc23)c1` gave an inhibition at 10 µM of 70%.

Another data set deals with RAC-alpha serine/threonine-protein kinase (Homo sapiens) (UniProt P31749). Description: Inhibition of AKT at 5 uM.
RAC-alpha serine/threonine-protein kinase (Homo sapiens), sequence (P31749 whole entry): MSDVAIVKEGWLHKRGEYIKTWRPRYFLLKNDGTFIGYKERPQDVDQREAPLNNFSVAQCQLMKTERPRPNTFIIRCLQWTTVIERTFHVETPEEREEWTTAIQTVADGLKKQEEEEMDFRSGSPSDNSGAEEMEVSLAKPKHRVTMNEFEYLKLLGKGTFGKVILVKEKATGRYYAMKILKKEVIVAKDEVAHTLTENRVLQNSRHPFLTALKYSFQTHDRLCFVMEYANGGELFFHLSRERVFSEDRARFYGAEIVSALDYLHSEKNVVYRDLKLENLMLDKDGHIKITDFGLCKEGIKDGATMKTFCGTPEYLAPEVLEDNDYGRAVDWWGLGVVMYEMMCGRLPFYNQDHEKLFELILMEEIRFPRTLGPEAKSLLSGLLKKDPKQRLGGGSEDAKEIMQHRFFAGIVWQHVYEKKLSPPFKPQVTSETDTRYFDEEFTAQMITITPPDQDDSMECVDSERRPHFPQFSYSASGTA
Conditions: not given
As for `COc1cccc(CNC(=O)c2cc3ccc(-c4cn[nH]c4)nc3n2CCN(C)C)c1`, the inhibition entry is “inactive”.

As to `COc1cccc(CNC(=O)c2cc3ccc(-c4cn[nH]c4)nc3n2CCCO)c1`, the inhibition entry is “inactive”.
